Laboratory results from US20260275403A1, “METHOD FOR DETECTION OF NUCLEIC ACID END(S)” (INTODNA SPÓLKA AKCYJNA, priority 2023, published 2026).
Entries after “also recorded” stand apart in the source; their conditions may differ.

What was measured:
[1] = tested on: NCI-H1693 (i.e. HR deficient) cell line; assay: dSTRIDE, double-strand DNA breaks; type: cell-based, human; conditions: 48h; for number of double-strand DNA breaks detected by dSTRIDE: NCI-H1693, 5 μM or 50 μM etoposide
Protocol: (§1) NCI-H1693 and NCI-H661 were purchased from ATCC cell culture collection (18.05.2022). The detailed cell culture description is listed on Table 16. […] The master bank collection was prepared form #1 passage.
(§2) (also included passage number).
(§3) The labelling was performed according to protocols described in Examples 2 or 3.

[2] = tested on: NCI-H661 (i.e. HR proficient cell line); assay: dSTRIDE, double-strand DNA breaks; type: cell-based, human; conditions: 48h; for number of double-strand DNA breaks detected by dSTRIDE: NCI-H661, 5 μM or 50 μM etoposide
Protocol: as §1, §2, §3

[3] = tested on: NCI-H1693 (i.e. HR deficient) cell line; assay: dSTRIDE-RPA, RPA70-associated double-strand DNA breaks; type: cell-based, human; conditions: 48h
Protocol: (§4) • 1. TdT reaction at 37° C. with BrdU and TdT enzyme • 2. (optional) rinse with PBS
(§5) • 1. […] (optional) PBS rinse • 4. […] (optional) PBS rinse
(§6) • 1. PLA probes binding reaction at 37° C. (Navinci PLA reagents and standard protocol) • 2. Reaction A at 37° C. • 3. Reaction B at 37° C. • 4. Reaction C at 37° C.
as §1, §2, §3

[4] = tested on: NCI-H661 (i.e. HR proficient cell line); assay: as above; type: cell-based, human; conditions: NCI-H661, 5 μM or 50 μM etoposide, 48h
Protocol: as §4, §5, §6, §1, §2, §3

[5] = tested on: NCI-H1693 (i.e. HR deficient cell line); assay: dSTRIDE-RAD51 (dSTRIDE-HR), RAD51-associated double-strand DNA breaks; type: cell-based, human; conditions: NCI-H1693, 5 μM or 50 μM etoposide, 48h
Protocol: (§7) • 1. […] (i.e. room temperature) • 2. […] (optional) rinse with PBS
as §4
(§8) • 6. […] 7. […] (optional) PBS rinse • 9. […] (optional) PBS rinse
as §6, §1, §2, §3

[6] = tested on: NCI-H661 (i.e. HR proficient cell line); assay: as above; type: cell-based, human; conditions: 48h; for number of dSTRIDE-HR (RAD51) foci: NCI-H661, 5 μM or 50 μM etoposide
Protocol: as §7, §4, §8, §6, §1, §2, §3

HAP1 cells (WT and KO) = tested on: HAP1 cells (WT and KO)
Protocol: (§9) • 1. Proteinase K treatment of the biological material for 30 seconds (at a concentration of about 7 μg/mL (1:350 dilution of proteinase K stock concentration of 2.5 mg/mL), solution in PBS) at about 22° C. (i.e. room temperature) • 2. (optional) incubation with 1 mM PMSF in PBS for 5 minutes at about 22° C. • 3. (optional) rinse with PBS
(§10) • 5. Polymerase I reaction at 37° C. with polymerase I enzyme, […], biotin-16-dUTP, biotin-16-dCTP, and dGTP • 6. (optional) rinse with buffer
(§11) • 1. (optional) 60 min incubation in Navinci Blocking Buffer at 37° C. • 2. 60 min incubation in 1:100 rabbit monoclonal anti-PMS2 (or PMS1 or MLH1) antibody in Navinci Primary Antibody Diluent at about 22° C. • 3. (optional) PBS rinse • 4. 60 min incubation in 1:100 mouse monoclonal anti-biotin antibody in Navinci Primary Antibody Diluent at about 22° C. • 5. (optional) PBS rinse
as §6
After 24 h of rest the operation medium was changed to a fresh one with supplementation of 1 μM or 10 μM 6-Tioguanine (6TG) in DMSO and left to rest for the incubation time 48h (final DMSO concentration was 0.1% in medium in each experimental condition). […]

human cells U2OS WT = tested on: human cells U2OS WT
Protocol: as §9, §10, §11, §6
In vehicle conditions the operation medium was changed to a fresh one with supplementation of 0.1% sterile DMSO and left to rest for the incubation time.

HAP1 parental cells = conditions: 6TG at a higher concentration
Protocol: as §9, §10, §11
(§12) • 1. PLA probes binding reaction at 37° C. (Navinci PLA reagents and standard protocol) • 2. Reaction A at 37° C. • 3. Reaction B at 37° C. • 4. Reaction C at 37° C. […]
(§13) When cell confluence reached 90%, cells were washed with sterile PBS (without Ca^2+ and Mg^2+) and incubated for 2 min with 2 mL of 0.25% trypsin solution with EDTA. Trypsin was inactivated with the culture medium containing FBS and the collected cells were counted in the Burker chamber. […]

HAP1 PMS2 KO cells = conditions: 6TG 1 uM 48 h treatment
Protocol: as §9, §10, §11, §12, §13

[7] = NCI-H1693 versus NCI-H661, 50 uM etoposide

## COc1cc([C@@H]2c3cc4c(cc3[C@@H](O[C@@H]3O[C@@H]5CO[C@@H](C)O[C@H]5[C@H](O)[C@H]3O)[C@H]3COC(=O)[C@H]23)OCO4)cc(OC)c1O [etoposide, Etoposide]
[1]
  number of double-strand DNA breaks detected by dSTRIDE: increase in the number of double-strand DNA breaks; also recorded: dose-dependent increase in the number of DSBs; also recorded: dose-dependent formation of double-strand DNA breaks
[1]; listed as Etoposide
  number of double-strand DNA breaks detected by dSTRIDE: efficiently induces DSBs
[1]; NCI-H1693, 5 um etoposide
  increase in DSBs (dSTRIDE), cell line comparison: comparable in both cell lines
[1]; [7]
  number of DSBs (dSTRIDE), cell line comparison: more profound increase; also recorded: more DSBs are induced in HR deficient than in HR proficient cell lines
[2]
  number of double-strand DNA breaks detected by dSTRIDE: dose-dependent increase in the number of DSBs; also recorded: dose-dependent response
[2]; listed as Etoposide
  number of double-strand DNA breaks detected by dSTRIDE: efficiently induces DSBs
[2]; NCI-H661, 5 um etoposide
  increase in DSBs (dSTRIDE), cell line comparison: comparable in both cell lines
[3]; NCI-H1693, 5 μM or 50 μM etoposide
  number of RPA-associated double-strand DNA breaks detected by dSTRIDE-RPA: dose-dependent increase in the number of dSTRIDE-RPA foci
[3]; [7]
  dSTRIDE-RPA foci, cell line comparison: more dSTRIDE-RPA foci detected in HR deficient cell line
[4]
  number of RPA-associated double-strand DNA breaks detected by dSTRIDE-RPA: dose-dependent increase in the number of dSTRIDE-RPA foci; also recorded: dose-dependent response
[5]
  number of RAD51-associated double-strand DNA breaks detected by dSTRIDE-RAD51: no response
[5]; listed as Etoposide
  number of RAD51-associated double-strand DNA breaks detected by dSTRIDE-RAD51: did not results in a detectable increase; also recorded: no response
[6]
  number of dSTRIDE-HR (RAD51) foci: dose-dependent increase; also recorded: dose-dependent response
[6]; listed as Etoposide
  number of dSTRIDE-HR (RAD51) foci: increase in the number of visible fluorescence foci
[6]; NCI-H661, 50 uM etoposide
  number of RAD51-associated double-strand DNA breaks detected by dSTRIDE-RAD51: significant increase

## Nc1nc2[nH]cnc2c(=S)[nH]1 [6TG, 6-Tioguanine]
HAP1 cells (WT and KO); HAP1 PMS2 WT and KO, 6TG treatment
  sSTRIDE-MMR (MLH1) readouts: increase in sSTRIDE-MMR (MLH1) readouts
HAP1 cells (WT and KO); after treatment with 6TG
  PMS1 at SSBs (sSTRIDE-PMS1): engaged in MMR processes
Human cells U2OS WT; Sample 4, 6TG treated U2OS WT cells, 48 h (6TG 100nM per Table 3), antigen retrieval 1 (proteinase K 2 min)
  maximum number of sSTRIDE MMR foci per nucleus: 3 foci per nucleus
Human cells U2OS WT; U2OS WT, 6TG 48 h, antigen retrieval 1 (proteinase K 2 min)
  response in number of foci detected after 6TG treatment (quantitative image analysis): no response
Human cells U2OS WT; U2OS WT, 48 h 6TG in different concentration, Abcam antibody, antigen retrieval method v2
  number of foci in the nucleus after treatment: did not significantly increase number of foci
Human cells U2OS WT; U2OS WT, Abcam antibody, 6TG 250 nM-10 μM, 24 h or 48 h, antigen retrieval method 2
  sSTRIDE MMR readouts level of 6TG treated cells versus non-treated samples: lower than in the non-treated samples
HAP1 parental cells
  level of sSTRIDE-MMR signals: elevated level of sSTRIDE-MMR signals
HAP1 PMS2 KO cells
  number of sSTRIDE-MMR fluorescence foci: does not result in a significant increase
